13 compounds from PubChem BioAssay AID292 (DTP/NCI, 2004) can be followed below.

This experiment concerns B6C3F1 mice, ip Sarcoma M5076, median survival T/C. Nature of the experiment: NCI In Vivo Anticancer Drug Screen. Data for tumor model Sarcoma M5076 (intraperitoneal) in B6C3F1 mice. To be noted: endpoint: median survival time, higher = longer survival. Here is the method: The antitumor activity of compounds was measured in mice bearing transplantable tumors. Survival or tumor size were measured and the results are expressed as the measurement made in the treated group (T) divided by the measurement made in the vehicle treated control group (C). The tumor model used in this assay is Sarcoma M5076 (intraperitoneal) in B6C3F1 mice

Setting [1] is: dose: 50.0 mg/kg/injection, schedule: Q04DX004 (ip), vehicle: Klucel (hydroxypropylcellulose) (HPC).
The mark [2] stands for this setting: dose: 25.0 mg/kg/injection, schedule: Q04DX004 (ip), vehicle: saline with Tween-80.
Where [3] appears, read: dose: 50.0 mg/kg/injection, schedule: Q04DX004 (ip), vehicle: saline with Tween-80.
Setting [4] is: dose: 100.0 mg/kg/injection, schedule: Q04DX004 (ip), vehicle: saline with Tween-80.
[5] abbreviates: dose: 25.0 mg/kg/injection, schedule: Q04DX004 (ip), vehicle: suspension in saline.
The mark [6] stands for this setting: dose: 50.0 mg/kg/injection, schedule: Q04DX004 (ip), vehicle: suspension in saline.
Where [7] appears, read: dose: 100.0 mg/kg/injection, schedule: Q04DX004 (ip), vehicle: suspension in saline.

Each structure is given as a SMILES string. Several values for one entry are separate records, joined by “and”; a condition that tells them apart may be missing. Equal values may be shown once. Toxic doses and inconclusive results are not listed.

In the case of `CC1Oc2cc3c(-c4c(O)cc(O)c5c(O)c6c(cc45)OC(C)C(C)C6=O)c(O)cc(O)c3c(O)c2C(=O)C1C` (stereo unspecified), the T/C by setting is: (dose: 0.62 mg/kg/injection, schedule: Q01DX009 (ip), vehicle: suspension in saline) 102 % of control; (dose: 1.25 mg/kg/injection, schedule: Q01DX009 (ip), vehicle: suspension in saline) 109 % of control; (dose: 1.25 mg/kg/injection, schedule: Q04DX004 (ip), vehicle: suspension in saline) 151 % of control; (dose: 1.8 mg/kg/injection, schedule: Q04DX004 (ip), vehicle: suspension in saline) 97 % of control and 115 % of control; (dose: 3.0 mg/kg/injection, schedule: Q04DX004 (ip), vehicle: suspension in saline) 107 % of control and 114 % of control; (dose: 8.33 mg/kg/injection, schedule: Q04DX004 (ip), vehicle: suspension in saline) 123 % of control.
With `CCOC(=O)/C=C1\CCC(C)n2c1nccc2=O` (stereo unspecified), the T/C reads like this: (dose: 37.5 mg/kg/injection, schedule: Q04DX004 (ip), vehicle: saline with Tween-80) 102 % of control; (dose: 75.0 mg/kg/injection, schedule: Q04DX004 (ip), vehicle: saline with Tween-80) 86 % of control; (dose: 150.0 mg/kg/injection, schedule: Q04DX004 (ip), vehicle: saline with Tween-80) 96 % of control; (dose: 300.0 mg/kg/injection, schedule: Q04DX004 (ip), vehicle: saline with Tween-80) 101 % of control; (dose: 600.0 mg/kg/injection, schedule: Q04DX004 (ip), vehicle: saline with Tween-80) 106 % of control.
`CC(=O)C1C(=O)C(=O)N(c2ccccc2C)C1=O` (stereo unspecified): the T/C was 104 % of control under setting [1]; 93 % of control (dose: 100.0 mg/kg/injection, schedule: Q04DX004 (ip), vehicle: Klucel (hydroxypropylcellulose) (HPC)); 102 % of control (dose: 200.0 mg/kg/injection, schedule: Q04DX004 (ip), vehicle: Klucel (hydroxypropylcellulose) (HPC)); 108 % of control (dose: 400.0 mg/kg/injection, schedule: Q04DX004 (ip), vehicle: Klucel (hydroxypropylcellulose) (HPC)).
As for `Nc1ccc(S(=O)(=O)Nc2cnc3c(Cl)cccc3n2)cc1`, the T/C runs as follows: (dose: 100.0 mg/kg/injection, schedule: Q04DX004 (ip), vehicle: DMSO) 104 % of control; (dose: 200.0 mg/kg/injection, schedule: Q04DX004 (ip), vehicle: DMSO) 102 % of control; (dose: 400.0 mg/kg/injection, schedule: Q04DX004 (ip), vehicle: DMSO) 93 % of control.
With `O=S1(=O)CS(=O)(=O)OCCO1`, the T/C is 160 % of control (dose: 6.25 mg/kg/injection, schedule: Q01DX009 (oral), vehicle: Klucel (hydroxypropylcellulose) (HPC)); 165 % of control (dose: 6.25 mg/kg/injection, schedule: Q04DX004 (ip), vehicle: Klucel (hydroxypropylcellulose) (HPC)); 109 % of control (dose: 12.5 mg/kg/injection, schedule: Q01DX001 (oral), vehicle: Klucel (hydroxypropylcellulose) (HPC)); 192 % of control (dose: 12.5 mg/kg/injection, schedule: Q01DX009 (oral), vehicle: Klucel (hydroxypropylcellulose) (HPC)); 180 % of control (dose: 12.5 mg/kg/injection, schedule: Q04DX004 (ip), vehicle: Klucel (hydroxypropylcellulose) (HPC)); 300 % of control (dose: 25.0 mg/kg/injection, schedule: Q01DX009 (oral), vehicle: Klucel (hydroxypropylcellulose) (HPC)). The T/C (dose: 25.0 mg/kg/injection, schedule: Q04DX004 (ip), vehicle: Klucel (hydroxypropylcellulose) (HPC)) is 267 % of control and 290 % of control; the T/C (dose: 50.0 mg/kg/injection, schedule: Q01DX009 (oral), vehicle: Klucel (hydroxypropylcellulose) (HPC)) was 300 % of control; the T/C under setting [1] was 267 % of control and 300 % of control; the T/C (dose: 100.0 mg/kg/injection, schedule: Q01DX001 (oral), vehicle: Klucel (hydroxypropylcellulose) (HPC)) was 300 % of control.
For the compound `[NH-]C(CCC(N)=O)C(=O)O.[NH-]C(CCC(N)=O)C(=O)O.[Zn+2]` (stereo unspecified), the T/C (dose: 12.5 mg/kg/injection, schedule: Q04DX004 (ip), vehicle: saline with Tween-80) was 103 % of control; the T/C under setting [2] was 98 % of control; the T/C under setting [3] was 96 % of control.
`O=c1ccn(C2CC3[O][Sn]([c]4ccccc4)([c]4ccccc4)[O]CC3O2)c(=O)[nH]1` (stereo unspecified): the T/C by setting is: (dose: 25.0 mg/kg/injection, schedule: Q04DX004 (ip), vehicle: distilled water + Tween-80) 104 % of control; (dose: 50.0 mg/kg/injection, schedule: Q04DX004 (ip), vehicle: distilled water + Tween-80) 102 % of control; (dose: 100.0 mg/kg/injection, schedule: Q04DX004 (ip), vehicle: distilled water + Tween-80) 101 % of control; (dose: 200.0 mg/kg/injection, schedule: Q04DX004 (ip), vehicle: distilled water + Tween-80) 103 % of control; (dose: 400.0 mg/kg/injection, schedule: Q04DX004 (ip), vehicle: distilled water + Tween-80) 102 % of control.
In the case of `C=C1C(O)C2(O)OCC34C(CC5C(C)=CC(=O)C(O)C5(C)C23)OC(=O)C(OC(=O)C/C=C(\C)CCCCC)C14` (stereo unspecified), the T/C was 105 % of control and 107 % of control (dose: 1.0 mg/kg/injection, schedule: Q04DX004 (ip), vehicle: saline + alcohol); 104 % of control and 122 % of control (dose: 2.0 mg/kg/injection, schedule: Q04DX004 (ip), vehicle: saline + alcohol); 102 % of control and 108 % of control (dose: 4.0 mg/kg/injection, schedule: Q04DX004 (ip), vehicle: saline + alcohol).
As to `NS(=O)(=O)OCCCCCCCOS(N)(=O)=O`, the T/C is 124 % of control under setting [2] and 185 % of control under setting [4].
Consider `Nc1cc2c(cc1Br)-c1c(C(=O)O)cccc1C2O` (stereo unspecified), for which the T/C is, setting by setting: under setting [3], 96 % of control; (dose: 50.0 mg/kg/injection, schedule: Q04DX004 (ip), vehicle: sodium bicarbonate) 94 % of control; under setting [4], 97 % of control; (dose: 100.0 mg/kg/injection, schedule: Q04DX004 (ip), vehicle: sodium bicarbonate) 100 % of control; (dose: 200.0 mg/kg/injection, schedule: Q04DX004 (ip), vehicle: saline with Tween-80) 101 % of control; (dose: 200.0 mg/kg/injection, schedule: Q04DX004 (ip), vehicle: sodium bicarbonate) 109 % of control. The T/C runs as follows: (dose: 400.0 mg/kg/injection, schedule: Q04DX004 (ip), vehicle: saline with Tween-80) 109 % of control; (dose: 400.0 mg/kg/injection, schedule: Q04DX004 (ip), vehicle: sodium bicarbonate) 107 % of control; (dose: 683.0 mg/kg/injection, schedule: Q04DX004 (ip), vehicle: saline with Tween-80) 103 % of control; (dose: 800.0 mg/kg/injection, schedule: Q04DX004 (ip), vehicle: sodium bicarbonate) 118 % of control.
As for `O=NNc1ccc2cccnc2n1`, the T/C is 104 % of control (dose: 12.5 mg/kg/injection, schedule: Q04DX004 (ip), vehicle: water); 116 % of control (dose: 25.0 mg/kg/injection, schedule: Q04DX004 (ip), vehicle: water); 151 % of control (dose: 50.0 mg/kg/injection, schedule: Q04DX004 (ip), vehicle: water); 151 % of control and 161 % of control (dose: 100.0 mg/kg/injection, schedule: Q04DX004 (ip), vehicle: water); 174 % of control (dose: 200.0 mg/kg/injection, schedule: Q04DX004 (ip), vehicle: water).
In the case of `Oc1ccc(/C=N/Nc2nnc(N/N=C/c3ccc(O)cc3O)c3ccccc23)c(O)c1`, the T/C is 108 % of control (dose: 6.25 mg/kg/injection, schedule: Q04DX004 (ip), vehicle: suspension in saline); 109 % of control (dose: 12.5 mg/kg/injection, schedule: Q04DX004 (ip), vehicle: suspension in saline); 109 % of control under setting [5]; 109 % of control under setting [6]; 119 % of control under setting [7].
As for `CC(=O)NCCSSCc1ccccc1CS(=O)O`, the T/C reads like this: under setting [5], 96 % of control; under setting [6], 100 % of control; under setting [7], 100 % of control; (dose: 200.0 mg/kg/injection, schedule: Q04DX004 (ip), vehicle: suspension in saline) 101 % of control; (dose: 400.0 mg/kg/injection, schedule: Q04DX004 (ip), vehicle: suspension in saline) 99 % of control.
